Experimental data from patent publication US12122779B2, “Pyrrolo-pyridazine derivatives as muscarinic M1 receptor positive allosteric modulators” (SUVEN LIFE SCIENCES LIMITED, priority 2018, dated 2024).

Experiments:
[1] = biological target: T1, recombinant human Muscarinic M1 receptor (Homo sapiens, UniProt P11229); test: Allosteric potency EC50 for muscarinic M1 receptor, CHO pCRE-Luc reporter cell-based assay with EC20 of acetylcholine; settings: CHO cells, luciferase activity, in presence of EC20 of acetylcholine, 4 hours
T1 sequence (P11229 1-460): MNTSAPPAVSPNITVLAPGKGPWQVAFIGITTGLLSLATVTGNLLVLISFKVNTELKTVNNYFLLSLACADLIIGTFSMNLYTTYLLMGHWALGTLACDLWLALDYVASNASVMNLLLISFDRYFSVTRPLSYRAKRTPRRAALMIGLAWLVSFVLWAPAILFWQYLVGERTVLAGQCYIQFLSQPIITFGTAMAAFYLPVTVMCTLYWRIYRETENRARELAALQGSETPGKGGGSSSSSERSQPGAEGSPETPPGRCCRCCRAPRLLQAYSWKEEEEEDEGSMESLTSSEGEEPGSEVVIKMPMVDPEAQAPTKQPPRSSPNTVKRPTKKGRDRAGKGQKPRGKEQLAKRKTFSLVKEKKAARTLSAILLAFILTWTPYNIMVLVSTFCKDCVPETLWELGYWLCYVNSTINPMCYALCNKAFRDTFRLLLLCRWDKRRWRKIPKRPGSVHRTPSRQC
Protocol: Determination of Allosteric Potency EC50 Values for Muscarinic M1 Receptor
A stable CHO cell line expressing recombinant human Muscarinic M1 receptor and pCRE-Luc reporter system was used for cell-based assay. The assay offers a non-radioactive based approach to determine binding of a compound to GPCRs. In this specific assay, the level of intracellular cyclic AMP which is modulated by activation or inhibition of the receptor is measured. The recombinant cells harbor luciferase reporter gene under the control of cyclic AMP response element.
The above cells were grown in 96 well clear bottom white plates in Hams F12 medium containing 10% fetal bovine serum (FBS). Prior to the addition of compounds or standard agonist, cells were serum starved overnight. Increasing concentrations of test compounds were added along with EC20 of acetylcholine in OptiMEM medium to the cells. The incubation was continued at 37° C. in CO2 incubator for 4 hours. Medium was removed and cells were washed with phosphate buffered saline. The cells were lysed and luciferase activity was measured in a Luminometer. Luminescence units were plotted against the compound concentrations using Graphpad software.

[2] = Rodent pharmacokinetic study; assay type: in vivo, Male Wistar rats; settings: male, Wistar, plasma, rat; for bioavailability: oral 3 mg/kg vs intravenous 1 mg/kg, read-out: F (%) Bioavailability
Protocol: Rodent Pharmacokinetic Study
Male Wistar rats (260±50 grams) were used as experimental animals. Animals were housed individually in polypropylene cage. Two days prior to study, male Wistar rats were anesthetized with isoflurane for surgical placement of jugular vein catheter. Rats were randomly divided for oral (3 mg/kg) and intravenous (1 mg/kg) dosing (n=3/group) and fasted overnight before oral dosing (p.o.). However, rats allocated to intravenous dosing food and water was provided ad libitum.
At pre-determined point, blood was collected through jugular vein and replenished with an equivalent volume of normal saline. Collected blood was transferred into a labeled eppendorf tube containing 10 μL of heparin as an anticoagulant. Typically blood samples were collected at following time points: 0.08, 0.25, 0.5, 1, 2, 4, 6, 8, and 24 h post dose. Blood was centrifuged at 4000 rpm for 10 minutes. Plasma was separated and stored frozen at −80° C. until analysis. The concentrations of the test compounds were quantified in plasma by qualified LC-MS/MS method using suitable extraction technique. The test compounds were quantified in the calibration range around 1-1000 ng/mL in plasma. Study samples were analyzed using calibration samples in the batch and quality control samples spread across the batch.
Pharmacokinetic parameters Cmax, AUCt, T1/2, Clearance and Bioavailability (F) were calculated by non-compartmental model using standard non-compartmental model by using Phoenix WinNonlin 6.0.4 version Software package.

[3] = Rodent brain penetration study; assay type: in vivo, Male Wistar rats; settings: male, Wistar, brain and plasma, po; rat, 3 mg/kg p.o., brain-plasma ratio; read-out: Single dose Rat Brain Penetration (Cb/Cp) at 3 mg/kg, p.o.
Protocol: Rodent Brain Penetration Study
Male Wistar rats (260±40 grams) were used as experimental animals. Three animals were housed in each cage. Animals were given water and food ad libitum throughout the experiment and maintained on a 12 h light/dark cycle.
Brain penetration was determined in discrete manner in rats. One day prior to dosing day, male Wistar rats were acclimatized and randomly grouped according to their weight. At each time point (0.50, 1 and 2 h) n=3 animals were used.
The test compounds were suitably preformulated and administered orally at (free base equivalent) 3 mg/kg. Blood samples were removed via cardiac puncture by using isoflurane anesthesia. The animals were sacrificed to collect brain tissue. Plasma was separated and brain samples were homogenized and stored frozen at −20° C. until analysis. The concentrations of the test compounds in plasma and brain were determined using LC-MS/MS method.
The test compounds were quantified in plasma and brain homogenate by qualified LC-MS/MS method using suitable extraction technique. The test compounds were quantified in the calibration range of 1-500 ng/mL in plasma and brain homogenate. Study samples were analyzed using calibration samples in the batch and quality control samples spread across the batch. Extent of brain-plasma ratio (Cb/Cp) was calculated.

Male Wistar rats [4] = test: Object recognition task model; assay type: in vivo; settings: rat, p.o.; for Exploration time mean ± S.E.M, Familiar object / Exploration time mean ± S.E.M, Novel object: choice trial 24 h after T1
Protocol: Object Recognition Task Model
(§1) Male Wistar rats (8-10 weeks old) were used as experimental animals. Four animals were housed in each cage. Animals were kept on 20% food deprivation from a day prior to experimentation. Water was provided ad libitum throughout the experiment. Animals were maintained on a 12 h light/dark cycle in temperature and humidity controlled room. The experiment was carried out in a circular or square arena made up of acrylic. Rats were habituated to individual arenas for up to 1 hour in the absence of any objects on day 1.
One group of 12 rats received vehicle and another set of animals received test compounds, before familiar (T1) and choice (T2) trials. During the familiarization phase, (T1), the rats were placed individually in the arena for 3 minutes, in which two identical objects (a1 and a2) were positioned 10 cm from the wall. 24 h after T1, trial for long-term memory test was performed. The same rats were placed in the same arena as they were placed in T1 trial. During the choice phase (T2) rats were allowed to explore the arena for 3 minutes in presence of a copy of familiar object (a3) and one novel object (b). During the T1 and T2 trial, explorations of each object (defined as sniffing, licking, chewing or having moving vibrissae whilst directing the nose towards the object at a distance of less than 1 cm) were recorded using stopwatch. • T1 is the total time spent exploring the familiar objects (a1+a2). • T2 is the total time spent exploring the familiar object and novel object (a3+b).
The object recognition test was performed as described in Behav. Brain Res., 1988, 31, 47-59.

Male Wistar rats [5] = test: Object recognition task model (combination study with donepezil); assay type: in vivo; settings: rat, combination of sub efficacious doses with donepezil (FIG. 1)
Protocol: Object Recognition Task Model (Combination Study)
The cognition enhancing properties of compounds of this invention were estimated by using this model.
as §1, with “an open field” for “a circular or square arena”, “arenas (open field)” for “arenas”, “20 minutes” for “up to 1 hour”, “1. […]” for “1.”
The same rats were placed in the same arena as they were placed in T1 trial. […] During the T1 and T2 trial, explorations of each object (defined as sniffing, licking, chewing or having moving vibrissae whilst directing the nose towards the object at a distance of less than 1 cm) were recorded using stopwatch. • T1 is the total time spent exploring the familiar objects (a1+a2). • T2 is the total time spent exploring the familiar object and novel object (a3+b). • Discriminative index=Time spent with novel object/(time spent with novel and familiar object). […]

Row | SMILES | EC50 [1] [nM] | AUC(0-t) ([2]; intravenous (bolus), 1 mg/kg) [ng·h/mL] | clearance ([2]; intravenous (bolus), 1 mg/kg) [mL/min/kg] | half-life ([2]; intravenous (bolus), 1 mg/kg) [h] | bioavailability [2] [%] | AUC(0-t) ([2]; oral (gavage), 3 mg/kg) [ng·h/mL] | Cmax ([2]; oral (gavage), 3 mg/kg) [ng/mL] | half-life ([2]; oral (gavage), 3 mg/kg) [h] | Kp [3] | Inference (Male Wistar rats [4]; 3 mg/kg) | Exploration time mean ± S.E.M, Familiar object (Male Wistar rats [4]; 3 mg/kg) [s] | Exploration time mean ± S.E.M, Novel object (Male Wistar rats [4]; 3 mg/kg) [s] | Procognitive effect in object recognition task (Male Wistar rats [5]) | Inference (Male Wistar rats [4]; 1 mg/kg) | Exploration time mean ± S.E.M, Familiar object (Male Wistar rats [4]; 1 mg/kg) [s] | Exploration time mean ± S.E.M, Novel object (Male Wistar rats [4]; 1 mg/kg) [s] | Inference (Male Wistar rats [4]; 0.1 mg/kg) | Exploration time mean ± S.E.M, Familiar object (Male Wistar rats [4]; 0.1 mg/kg) [s] | Exploration time mean ± S.E.M, Novel object (Male Wistar rats [4]; 0.1 mg/kg) [s]
1 | O=C(N[C@H]1CCCC[C@@H]1O)c1cc(Cc2ccccc2)c2cccn2n1 [Example 4, N-[(1S,2S)-2-Hydroxycyclohexyl]-4-benzyl-pyrrolo[1,2-b]pyridazine-2-carboxamide] | 1850 | 677 ± 194 | 24 ± 6 | 0.7 ± 0.1 | 13 ± 1 | 259 ± 22 | 113 ± 11 | 2.5 ± 0.5 | 1.42 ± 0.1 | Active | 16.24 ± 1.09 | 25.9 ± 2.54 | Procognitive effects were observed |  |  |  |  |  | 
2 | O=C(NC1CCOCC1)c1cc(Cc2ccc(Cl)cc2)c2cccn2n1 [Example 14, N-[Tetrahydropyran-4-yl]-4-(4-chlorobenzyl)-pyrrolo[1,2-b]pyridazine-2-carboxamide] | 976 | 569 ± 74 | 27 ± 1 | 5.7 ± 0.7 | 31 ± 6 | 532 ± 102 | 68 ± 22 | 7.9 ± 1.3 | 3.26 ± 0.02 | Active | 11.28 ± 2.18 | 23.08 ± 2.96 |  |  |  |  |  |  | 
3 | Cn1cc(-c2ccc(Cc3cc(C(=O)NCC(C)(C)O)nn4cccc34)cc2)cn1 [Example 19, N-[2-hydroxy-2-methyl-propyl] 4-[4-(1-methyl-1H-pyrazol-4-yl)-benzyl]-pyrrolo[1,2-b]pyridazine-2-carboxamide] | 336 | 983 ± 91 | 17 ± 1.6 | 0.5 | 66 ± 18 | 1940 ± 520 | 933 ± 260 | 1 ± 0.1 | 0.26 ± 0.02 |  |  |  |  |  |  |  |  |  | 
4 | Cn1cc(-c2ccc(Cc3cc(C(=O)NCC4(O)CCCCC4)nn4cccc34)cc2)cn1 [Example 24, N-[l-Hydroxy-cyclohexylmethyl] 4-[4-(1-methyl-1H-pyrazol-4-yl)-benzyl]-pyrrolo[1,2-b]pyridazine-2-carboxamide] | 531 | 359 ± 58 | 47 ± 8 | 1.6 ± 0.3 | 5 ± 1 | 52 ± 8 | 16 ± 4 | 1.9 ± 1.1 | 0.38 |  |  |  |  |  |  |  |  |  | 
5 | CC(C)(O)CNC(=O)c1cc(Cc2ccc(-c3cccnc3)cc2)c2cccn2n1 [Example 29, N-[2-Hydroxy-2-methyl-propyl] 4-[4-(3-pyridyl)-benzyl]-pyrrolo[1,2-b]pyridazine-2-carboxamide] | 1170 | 2280 ± 161 | 7.2 ± 0.5 | 1.5 ± 0.1 | 88 ± 4 | 6030 ± 279 | 1810 ± 327 | 2.2 ± 0.6 | 0.31 ± 0.04 |  |  |  |  | Active | 12.17 ± 1.26 | 22.26 ± 1.05 |  |  | 
6 | O=C(NC1CCOCC1)c1cc(Cc2ccc(-c3ccncc3)cc2)c2cccn2n1 [Example 31, N-[Tetrahydropyran-4-yl] 4-[4-(4-pyridyl)-benzyl]-pyrrolo[1,2-b]pyridazine-2-carboxamide] | 1550 | 576 ± 192 | 30.3 ± 8.9 | 1.5 ± 0.4 | 114 ± 20 | 1960 ± 360 | 363 ± 40 | 2.8 ± 0.1 | 1.41 ± 0.19 |  |  |  |  |  |  |  | Active | 14.19 ± 1.02 | 20.18 ± 1.21
